Results: patent US11981666B2, “GLP-1 receptor agonist and composition and use thereof” (HANGZHOU ZHONGMEIHUADONG PHARMACEUTICAL CO., LTD., priority 2021, dated 2024)
Where “and” joins values, the source holds several entries; their conditions need not be identical. Equal values may be shown once. Read-outs that look alike come from different tables or passages of the source.

Experiments:
[1] = Pharmacokinetic experiment in cynomolgus monkeys; format: in vivo, cynomolgus monkey; conditions: for Vd: read-out: Vss; for F: oral 20 mg/kg vs intravenous 2 mg/kg
Experimental: Experimental objective: To evaluate the pharmacokinetic profile of compound 1 and compare it with compound 20 (control compound).
Experimental method: 6 male Non-juvenile cynomolgus monkeys, 4˜5 kg, were purchased from Huazheng Experimental Animal Center. Group IV was administered intravenously at a dose of 2 mg/kg (5 mL/kg) (n=3), and the group PO was administered orally at a dose of 20 mg/kg (10 mL/kg) (n=3). Approximately 500 μL blood was collected from cephalic vein and saphenous vein at each experimental time point, and centrifuged at 2,000 g for 5 min (4° C.) within 15 min after sampling for subsequent analysis.

[2] = Caco-2 cell transport experiment; format: in vitro ADME; conditions: human
Experimental: Caco-2 cells, 77th passage; HBSS, Lot: G210713; ACN+IS (tolbutamide 200 ng/mL); Caco-2 was inoculated on polyethylene (PET) in a 96-well Falcon plate at 2×10^5 cells/cm^2 until a confluent cell monolayer was formed on day 21-28. The culture medium was changed every 3-4 days. The test compound was diluted to a concentration of 10 uM with a transport buffer of 10 mM stock solution (HBSS without BSA) and applied to the apical side or the basolateral side of the cell monolayer. Incubation was carried out at 37° C., 5% CO2, and 95% relative humidity for 120 minutes, and the permeability of the test compound from the A to B direction or the B to A direction was determined in duplicate. The efflux ratio of each compound was determined. Test and reference compounds were quantitated by LC-MS/MS analysis based on the analyte/IS peak area ratio. […] [table]

ICR mice [3] = experiment: Toxicological experiment in mice, 14-day repeated oral gavage (toxicity study); format: in vivo
Experimental: (§1) Experimental method: 212 ICR mice (SPF grade), half male and half female. Animals in groups 1-5 were used for toxicity study, with 10 male and 10 female animals in each group; and animals in groups 6-9 were used for toxicokinetic study, with 14 male and 14 female animals in each group (2 of them were spare animals). […] Animals in Groups 1-9 were administered orally once a day for 14 consecutive days.

hERG potassium channels = molecular target: T1, hERG potassium channels (Homo sapiens, UniProt Q12809); experiment: Test for inhibition of hERG potassium channels (whole-cell patch clamp, HEK-293-hERG cells); format: cell-based; conditions: for hERG (IR): inhibition rate of tail current
T1 construct: expressed in transfected cells; host or cells: HEK-293-hERG cells
T1 sequence (Q12809 whole entry): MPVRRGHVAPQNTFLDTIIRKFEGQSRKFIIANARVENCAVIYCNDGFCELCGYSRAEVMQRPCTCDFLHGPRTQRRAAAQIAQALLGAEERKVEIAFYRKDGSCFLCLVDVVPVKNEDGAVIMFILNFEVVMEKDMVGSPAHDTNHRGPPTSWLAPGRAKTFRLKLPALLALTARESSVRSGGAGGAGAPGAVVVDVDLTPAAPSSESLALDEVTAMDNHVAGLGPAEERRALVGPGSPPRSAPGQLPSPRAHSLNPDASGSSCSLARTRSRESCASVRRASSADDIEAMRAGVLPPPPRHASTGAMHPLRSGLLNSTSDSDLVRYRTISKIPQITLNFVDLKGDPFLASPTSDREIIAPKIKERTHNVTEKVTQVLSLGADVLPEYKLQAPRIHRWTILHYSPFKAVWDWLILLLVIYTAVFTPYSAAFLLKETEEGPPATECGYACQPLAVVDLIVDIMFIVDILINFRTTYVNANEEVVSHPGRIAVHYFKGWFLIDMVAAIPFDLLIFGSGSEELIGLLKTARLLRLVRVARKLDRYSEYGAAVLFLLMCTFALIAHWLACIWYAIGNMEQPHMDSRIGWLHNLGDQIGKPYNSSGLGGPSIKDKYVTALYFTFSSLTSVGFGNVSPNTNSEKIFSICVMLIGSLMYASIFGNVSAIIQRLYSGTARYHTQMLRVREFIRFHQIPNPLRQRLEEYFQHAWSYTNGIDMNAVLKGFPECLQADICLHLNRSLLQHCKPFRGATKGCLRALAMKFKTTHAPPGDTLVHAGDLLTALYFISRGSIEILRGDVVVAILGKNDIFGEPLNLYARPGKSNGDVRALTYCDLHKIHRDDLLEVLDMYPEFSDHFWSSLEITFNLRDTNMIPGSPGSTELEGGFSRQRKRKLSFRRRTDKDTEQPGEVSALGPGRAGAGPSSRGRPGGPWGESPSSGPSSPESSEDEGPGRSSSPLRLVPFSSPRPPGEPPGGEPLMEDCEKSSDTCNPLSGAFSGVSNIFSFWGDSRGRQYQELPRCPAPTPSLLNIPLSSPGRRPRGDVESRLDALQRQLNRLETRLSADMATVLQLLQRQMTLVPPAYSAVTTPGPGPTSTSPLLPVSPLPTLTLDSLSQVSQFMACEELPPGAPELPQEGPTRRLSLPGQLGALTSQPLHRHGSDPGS
Source text: Positive control: Amitriptyline hydrochloride or Terfenadine

[4] = Toxicological experiment in mice, 14-day repeated oral gavage (toxicokinetic study); format: in vivo, mouse; conditions: ICR, mouse, po, 200 mg/kg, Day 14; for AUC(0-t): plasma
Experimental: as §1

ICR mice [5] = experiment: as above; format: in vivo, mouse; conditions: toxicokinetic study, female animals, 200 mg/kg oral once a day for 14 days
Experimental: as §1

[6] = Metabolic stability in (human) liver microsomes; format: in vitro ADME; conditions: pH 7.4, test concentration 1 μM
Experimental: 3×NADPH stock solution (6 mM, 5 mg/mL) was prepared by dissolving NADPH in the buffer solution; 4. 30 μL of 1.5 μM additive solution containing 0.75 mg/mL microsomal solution was distributed to the plates designated for different time points (0, 5, 15, 30, 45 minutes); 5. at 0 min, 150 μL of ACN containing IS was added to the wells of the plate, followed by addition of 15 μL of NADPH stock solution (6 mM, step 3); 6. all other plates were pre-incubated at 37° C. for 5 minutes; 7. adding 15 μL of NADPH stock solution to the plate to start the reaction and timing; 8. 150 μL of ACN containing IS was added to the wells of the corresponding plates to stop the reaction at 5 min, 15 min, 30 min and 45 min, respectively; 9. after quenching, the plates were shaken on a shaker for 10 minutes (600 rpm/min) and then centrifuged at 6000 rpm for 15 minutes; 10. 80 μL of supernatant was transferred from each well to a 96-well sample plate containing 140 μL water for LC/MS analysis.
Detection method: LC-MS/MS-11 (8050), internal standard: tolbutamide; MS conditions: positive ion ESI for testosterone and test compound, and negative ion ESI for tolbutamide; Mobile phases: mobile phase A is 0.1% FA in water, and mobile phase B is 0.1% FA in ACN; Column and specification: ACQUITY UPLC HSS T3 1.8 um 2.1*50 mm.

Human GLP-1R = molecular target: T2, Human GLP-1R (Homo sapiens, UniProt P43220); experiment: GLP-1R agonistic activity assay (HTRF cAMP, 293A GFP-GLP-1R cells); format: cell-based; conditions: cAMP level, geometric mean
T2 construct: expressed in transfected cells
T2 sequence (P43220 24-463): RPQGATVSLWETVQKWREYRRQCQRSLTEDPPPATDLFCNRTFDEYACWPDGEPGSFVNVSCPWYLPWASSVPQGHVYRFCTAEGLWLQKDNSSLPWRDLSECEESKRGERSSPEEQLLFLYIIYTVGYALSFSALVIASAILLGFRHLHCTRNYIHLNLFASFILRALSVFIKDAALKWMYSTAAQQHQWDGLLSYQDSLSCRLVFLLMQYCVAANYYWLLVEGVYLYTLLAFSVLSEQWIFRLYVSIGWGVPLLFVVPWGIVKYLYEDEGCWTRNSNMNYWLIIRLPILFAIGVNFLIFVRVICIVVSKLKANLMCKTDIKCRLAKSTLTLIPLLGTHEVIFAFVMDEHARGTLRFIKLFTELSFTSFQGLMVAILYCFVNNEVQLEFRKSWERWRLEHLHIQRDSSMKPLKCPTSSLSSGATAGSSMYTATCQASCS
Source text: The method was a competitive immunoassay.

[7] = intravenous 2 mg/kg, male, individual animals #1, #2, #3, 2 mg/kg
[8] = male, cynomolgus monkey, plasma, iv, 2 mg/kg, intravenous 2 mg/kg, Mean (n=3)
[9] = male, cynomolgus monkey, plasma, iv, 2 mg/kg, intravenous 2 mg/kg, individual animals #1, #2, #3
[10] = male, cynomolgus monkey, plasma, po, 20 mg/kg, oral 20 mg/kg, Mean (n=3)
[11] = oral 20 mg/kg, male, individual animals #4, #5, #6, 20 mg/kg

O=C(O)c1ccc2nc(CN3CCC(c4cccc(OCc5ccc(C6COC6)cc5F)n4)CC3)n(C[C@@H]3CCO3)c2c1 [Compound 1, (S)-2-((4-(6-((2-fluoro-4-(oxetan-3-yl)benzyl)oxy)pyridin-2-yl)piperidin-1-yl)methyl)-1-(oxetan-2-ylmethyl)-1H-benzo[d]imidazole-6-carboxylic acid]
pharmacokinetic profile, orally administered (conclusion) ([1]; compared with control compound 20): significantly better than that of the control compound 20
AUCINF [1, 7]: 14.9 hr * μM and 13.0 hr * μM and 8749 hr * ng/ml and 7622 hr * ng/ml
AUClast [1, 7]: 14.9 hr * μM and 13.0 hr * μM and 15215 hr * ng/ml and 8739 hr * ng/ml and 7607 hr * ng/ml
CL [1, 7]: 2.19 mL/min/kg and 3.81 mL/min/kg and 4.37 mL/min/kg and 2.18 mL/min/kg and 3.82 mL/min/kg
MRTINF [1, 7]: 0.247 h and 0.242 h
T1/2 [1, 7]: 1.46 h and 1.50 h
Vss [1, 7]: 0.0564 L/kg and 0.0635 L/kg
AUC(0-inf) [1, 8]: 18 µM·h and 10500 ng·h/mL
AUC(0-t) [1, 8]: 17.9 µM·h and 10500 ng·h/mL
MRT inf [1, 8]: 0.292 h
clearance [1, 8]: 3.46 mL/min/kg
half-life [1, 8]: 1.39 h
AUC(0-inf) [1, 9]: 26 µM·h and 15200 ng·h/mL
AUC(0-t) [1, 9]: 26 µM·h
MRT inf [1, 9]: 0.387 h
half-life [1, 9]: 1.23 h
Vd ([1]; male, cynomolgus monkey, plasma, iv, 2 mg/kg, intravenous 2 mg/kg, male, Mean (n=3)): 0.0569 L/kg
Vd ([1]; male, cynomolgus monkey, plasma, iv, 2 mg/kg, intravenous 2 mg/kg, male, individual animals #1, #2, #3): 0.0508 L/kg
AUC(0-inf) [1, 10]: 61.8 µM·h and 36200 ng·h/mL
AUC(0-t) [1, 10]: 34500 ng·h/mL and 58.9 µM·h
MRT inf [1, 10]: 6.71 h
half-life [1, 10]: 5.32 h
Cmax ([1]; male, cynomolgus monkey, plasma, po, 20 mg/kg, oral 20 mg/kg, male, Mean (n=3), read-out: Cmax): 12700 ng/mL and 21.6 µM
Tmax ([1]; male, cynomolgus monkey, plasma, po, 20 mg/kg, oral 20 mg/kg, male, Mean (n=3), read-out: Tmax): 1.67 h
Tmax ([1]; male, cynomolgus monkey, plasma, po, 20 mg/kg, oral 20 mg/kg, male, individual animals #4, #5, #6, read-out: Tmax): 2 h
oral bioavailability (conclusion) ([1]; oral 20 mg/kg): high oral bioavailability
F ([1]; male, Mean (n=3)): 32.8%
F ([1]; male, individual animals #4, #5, #6): 40.5% and 16.2% and 41.8%
AUCINF [1, 11]: 72.8 hr * μM and 37.3 hr * μM and 75.2 hr * μM and 42676 hr * ng/ml and 21853 hr * ng/ml and 44083 hr * ng/ml
AUClast [1, 11]: 72.6 hr * μM and 29.0 hr * μM and 75.1 hr * μM and 42563 hr * ng/ml and 17014 hr * ng/ml and 44038 hr * ng/ml
Cmax [1, 11]: 12500 ng/mL and 2270 ng/mL and 23200 ng/mL
MRTINF [1, 11]: 3.15 h and 14.5 h and 2.47 h
T1/2 [1, 11]: 3.03 h and 10.4 h and 2.52 h
Tmax [1, 11]: 1.00 h
efflux ratio at 120 min, 10 uM ([2]; Papp(BA)/Papp(AB)): 5.26
Papp A→B at 120 min, 10 uM ([2]; apical to basolateral, 10 uM, 120 minutes): 3.14 ×10⁻⁶ cm/s
Papp B→A at 120 min, 10 uM ([2]; basolateral to apical, 10 uM, 120 minutes): 16.5 ×10⁻⁶ cm/s
non-toxic response dose level (ICR mice [3]; ICR mice, gavage once a day for 14 consecutive days): 200 mg/kg
toxicological effects on experimental animals (conclusion) (ICR mice [3]; at the studied dose (200 mg/kg)): no significant toxicological effects
biochemical analysis of serum (ICR mice [3]; compared to vehicle control): no significant toxicological changes
clinical observation (ICR mice [3]; toxicity study, 100 mg/kg, presumed not related to the test compound): occasionally showed abnormal gait, decreased activity, piloerection and traumatic abnormalities
IC50 (hERG potassium channels): 15.9 µM
hERG inhibitory activity (conclusion) (hERG potassium channels): Did not Exhibit hERG Inhibitory Activity
hERG (IR) (hERG potassium channels; 1 μM): 3.75% (1 μM)
hERG (IR) (hERG potassium channels; 10 μM): 40.7 (10 μM) %
Cmax ([4]; plasma of female animals): 117 µg/mL
Cmax ([4]; plasma of male animals): 81 µg/mL
AUC(0-t) ([4]; female, plasma of female animals, read-out: AUC(0-t) (second value listed)): 271 µg·h/mL
AUC(0-t) ([4]; female, plasma of female animals, read-out: AUC(0-t), the systemic exposure (first value listed)): 291 µg·h/mL
AUC(0-t) ([4]; male, plasma of male animals, read-out: AUC(0-t) (second value listed)): 200 µg·h/mL
AUC(0-t) ([4]; male, plasma of male animals, read-out: AUC(0-t), the systemic exposure (first value listed)): 218 µg·h/mL
animals found dead (ICR mice [5]): 1/14
half-life at 1 μM [6]: 2.17 h
EC50 (Human GLP-1R): 0.03 nM
